From patent publication US10456443B2, “Peptidyl calcineurin inhibitors” (OHIO STATE INNOVATION FOUNDATION, priority 2014, dated 2019)
Non-standard residues stand in square brackets, D forms with d. Residues, ends and D or L forms follow the SMILES beside them. Tle = CC(C)(C)[C@H](N)C(=O)O

Assays:
macrophage cells = assay: Inflammatory cytokine production in macrophage cells with LPS stimulation; assay type: cell-based
[1] = test system: HeLa cells stably transfected with GFP-NFAT; assay: GFP-NFAT translocation assay, live-cell confocal microscopy; conditions: 500 nM peptide, 2 h preincubation, 10 min ionomycin stimulation
[2] = Cellular uptake of cell penetrating peptides; assay type: cell-based; conditions: versus R11
calcineurin (CN) [3] = target: T1, calcineurin (CN) (Homo sapiens, UniProt Q08209)
T1 sequence (Q08209 2-347 limits assumed): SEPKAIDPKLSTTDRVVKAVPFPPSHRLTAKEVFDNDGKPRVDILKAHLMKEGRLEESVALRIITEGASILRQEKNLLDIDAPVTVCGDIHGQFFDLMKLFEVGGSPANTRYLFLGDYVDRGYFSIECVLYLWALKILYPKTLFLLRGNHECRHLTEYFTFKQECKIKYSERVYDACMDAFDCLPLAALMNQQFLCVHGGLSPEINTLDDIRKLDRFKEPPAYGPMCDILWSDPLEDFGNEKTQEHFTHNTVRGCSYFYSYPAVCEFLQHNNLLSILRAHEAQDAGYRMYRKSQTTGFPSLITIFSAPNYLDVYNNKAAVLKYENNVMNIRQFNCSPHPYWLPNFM

calcineurin (CN) [4] = target: T1, calcineurin (CN); conditions: read-out: IC50, inhibition of the binding of FITC-ZIZIT to CN; FITC-ZIZIT 100 nM, CN 150 nM, unlabeled competing peptide 0-20 μM

Ac-RRRRRRRRRRRC-SPDP-GPHPZIZITG-Cys(Ψ^Me,MePro)-HEEG-Propyl [R11-ZIZIT-cisPro]
attenuating the production of inflammatory cytokines (macrophage cells; macrophages, 1 μM, compared with 50 μM R11-VIVIT): significantly more effective than 50 μM R11-VIVIT
fold more potent than R11-VIVIT in cellular assays (macrophage cells; versus R11-VIVIT): approximately 100 fold
inhibition of the nuclear translocation of GFP-NFAT [1]: ~95%

cyclo(fΦRrRrQ) [CP9]
fold more active than R11 for cellular uptake [2]: approximately 12 fold

CC[C@H](C)[C@H](NC(=O)[C@@H](NC(=O)[C@@H](NC(=O)[C@@H](NC(=O)[C@@H]1CCCN1C(=O)[C@H](Cc1c[nH]cn1)NC(=O)[C@@H]1CCCN1C(=O)CN)C(C)(C)C)[C@@H](C)CC)C(C)(C)C)C(=O)N[C@H](C(=O)NCC(=O)N1CCC[C@H]1C(=O)N[C@@H](Cc1c[nH]cn1)C(=O)N[C@@H](CCC(=O)O)C(=O)N[C@@H](CCC(=O)O)C(N)=O)[C@@H](C)O [ZIZIT, GPHPZIZITGPHEE] (H-GPHP[Tle]I[Tle]ITGPHEE-NH2)
fold higher affinity for CN than VIVIT (calcineurin (CN) [3]; ZIZIT versus VIVIT): 10 fold
Kd (calcineurin (CN) [3]; read-out: KD against CN, FA assay, N-terminal 5(6)-SFX labeled peptides (100 nM)): 43 ± 12 nM
IC50 (calcineurin (CN) [4]): 280 ± 90 nM
